According to EPA's ToxRefDB 2:

How the values were obtained:
[1] = system: mouse; conditions: Carcinogenicity; b6c3f1; Oral; Feed; dose end: 105 week; group: systemic; systemic / pathology microscopic / liver / eosinophilic focus + systemic / pathology microscopic / liver / hypertrophy + systemic / …
[2] = system: rat; conditions: Subchronic oral toxicity in rodents, fischer, Feed, dose end: 14 week, group: systemic, systemic / organ weight / liver / absolute + systemic / organ weight / liver / relative to body weight + systemic / hematology / platelet / …
[3] = system: mouse; conditions: Subchronic oral toxicity in rodents, b6c3f1, Feed, dose end: 14 week
[4] = system: rat; conditions: Developmental neurotoxicity study; sprague dawley; Oral; Gavage/Intubation; dose end: 91 PND; group: cannot be grouped; systemic / in life observation / body weight / offspring (pup) weight
[5] = system: rat; conditions: Carcinogenicity; fischer; Oral; Feed; dose end: 104 week; group: systemic; systemic / pathology microscopic / liver / hypertrophy + systemic / pathology microscopic / liver / vacuolization cytoplasmic + systemic / …
[6] = system: rat; conditions: Prenatal developmental toxicity study, wistar, Oral, Gavage/Intubation, dose end: 19 GD
[7] = system: rat; conditions: Subchronic oral toxicity in rodents, sprague dawley, Feed, dose end: 13 week, group: systemic, systemic / in life observation / body weight / body weight + systemic / in life observation / body weight / body weight gain + systemic / in…
[8] = system: rat; conditions: Combined chronic toxicity/carcinogenicity, sprague dawley, Oral, Feed, dose end: 24 month, group: systemic
[9] = system: rat; conditions: Multigenerational reproductive toxicity study, sprague dawley, Oral, Feed, dose end: 2 generation
[10] = system: dog; conditions: Chronic toxicity; beagle; Oral; Feed; dose end: 24 month; group: systemic; systemic / in life observation / body weight / body weight gain + systemic / in life observation / food consumption / food efficiency + …
[11] = system: rat; conditions: Multigenerational reproductive toxicity study, sprague dawley, Oral, Gavage/Intubation, dose end: 2 generation
[12] = system: mouse; conditions: Carcinogenicity; cd1; Oral; [Not Specified]; dose end: 18 month; group: systemic; systemic / in life observation / body weight / body weight + systemic / in life observation / body weight / body weight gain
[13] = system: rat; conditions: Carcinogenicity, other, Oral, Feed, dose end: 80 week, group: systemic
[14] = system: mouse; conditions: Carcinogenicity; b6c3f1; Oral; Feed; dose end: 80 week; group: systemic; systemic / pathology microscopic / liver / hepatocellular carcinoma + systemic / in life observation / clinical signs / alopecia + systemic…
[15] = system: rat; conditions: Subchronic oral toxicity in rodents, wistar, Feed, dose end: 90 day, group: systemic, systemic / clinical chemistry / urea nitrogen / urea + systemic / hematology / blood clotting / blood clotting - clotting time + systemic / …
[16] = system: rabbit; conditions: Prenatal developmental toxicity study, new zealand white, Oral, Gavage/Intubation, dose end: 19 GD
[17] = system: rat; conditions: Developmental neurotoxicity study, sprague dawley, Oral, Feed, dose end: 72 PND, group: cannot be grouped
[18] = system: mouse; conditions: Combined chronic toxicity/carcinogenicity; b6c3f1; Oral; Feed; dose end: 107 week; group: systemic; systemic / pathology microscopic / liver / hepatocyte, multinucleate
[19] = system: mouse; conditions: Developmental neurotoxicity study; other; Oral; Feed; dose end: 77 PND; group: cannot be grouped; systemic / pathology microscopic / brain / [other] + systemic / pathology microscopic / brain / depletion
[20] = system: rat; conditions: Developmental neurotoxicity study; sprague dawley; Oral; [Not Specified]; dose end: 87 PND; group: cannot be grouped; systemic / in life observation / clinical signs / abnormal posture
[21] = system: rat; conditions: Multigenerational reproductive toxicity study, sprague dawley, Oral, Feed, dose end: 3 generation
[22] = system: rat; conditions: Subchronic oral toxicity in rodents, other, Feed, dose end: 90 day, group: systemic
[23] = group: maternal, reproductive / reproductive performance / estrous cycle / length
[24] = group: systemic, systemic / in life observation / clinical signs / ataxia + systemic / in life observation / clinical signs / lethargy + systemic / in life …
[25] = group: developmental, developmental / developmental malformation / bone / incomplete ossification
[26] = group: developmental, developmental / developmental malformation / bone / incomplete ossification + systemic / in life observation / body weight / fetal weight
[27] = group: maternal, systemic / in life observation / mortality / mortality + reproductive / offspring survival early / dead fetuses / dead fetuses
[28] = group: maternal, systemic / in life observation / mortality / mortality + reproductive / reproductive performance / postimplantation loss / postimplantation …
[29] = systemic / in life observation / body weight / body weight + systemic / in life observation / body weight / body weight gain + systemic / in…
[30] = group: parental, systemic / in life observation / body weight / body weight
[31] = group: reproductive, reproductive / reproductive performance / gestational length / gestational length
[32] = group: offspring, developmental / offspring survival late / lactation index / lactation index + developmental / offspring survival late / viability index / …
[33] = group: parental, systemic / in life observation / clinical signs / salivation + systemic / in life observation / body weight / body weight gain + systemic / …
[34] = group: reproductive, reproductive / offspring survival early / litter size / litter size
[35] = systemic / in life observation / body weight / body weight + systemic / in life observation / clinical signs / fur (altered appearance) + …
[36] = systemic / in life observation / clinical signs / fur (altered appearance) + systemic / in life observation / clinical signs / palpable mass…
[37] = group: developmental, systemic / in life observation / body weight / fetal weight
[38] = group: maternal, systemic / in life observation / mortality / mortality + reproductive / reproductive performance / aborted / aborted + systemic / in life …
[39] = group: offspring, developmental / developmental landmark / vaginal opening / vaginal opening + systemic / in life observation / body weight / offspring (pup) …
[40] = group: parental, systemic / in life observation / body weight / body weight + systemic / in life observation / body weight / body weight gain + systemic / …
[41] = group: reproductive, reproductive / reproductive performance / implantations / implantations + reproductive / offspring survival early / litter size / litter …
[42] = systemic / in life observation / food consumption / food consumption
[43] = systemic / in life observation / food consumption / food consumption + systemic / in life observation / body weight / body weight

## CCC1(c2ccccc2)C(=O)NCNC1=O [Primidone]
[1]
  LEL: 25 mg/kg/day
  LOAEL: 25 mg/kg/day
  NEL: < 25 mg/kg/day
  NOAEL: < 25 mg/kg/day
[2]
  LEL: 20 mg/kg/day
  LOAEL: > 400 mg/kg/day
  NEL: < 20 mg/kg/day
  NOAEL: ≥ 400 mg/kg/day
[3]; [23]
  LEL: 220 mg/kg/day
  LOAEL: > 1100 mg/kg/day
  NEL: 120 mg/kg/day
  NOAEL: ≥ 1100 mg/kg/day
[3]; [24]
  LOAEL: > 1000 mg/kg/day
  NEL: 50 mg/kg/day
  NOAEL: ≥ 1000 mg/kg/day
[3]; group: systemic, systemic / organ weight / liver / absolute + systemic / organ weight / liver / relative to body weight + systemic / pathology microscopic / …
  LEL: 100 mg/kg/day
[4]
  LEL: 40 mg/kg/day
  LOAEL: > 80 mg/kg/day
  NEL: < 40 mg/kg/day
  NOAEL: ≥ 80 mg/kg/day
[5]
  LEL: 25 mg/kg/day
  LOAEL: 25 mg/kg/day
  NEL: < 25 mg/kg/day
  NOAEL: < 25 mg/kg/day

## CCCOC(=O)NCCCN(C)C.Cl [Propamocarb hydrochloride]
[6]; [25]
  LEL: 740 mg/kg/day
  LOAEL: 740 mg/kg/day
[6]; [26]
  NEL: 221 mg/kg/day
  NOAEL: 221 mg/kg/day
[6]; [27]
  LEL: 740 mg/kg/day
  LOAEL: 740 mg/kg/day
[6]; [28]
  NEL: 221 mg/kg/day
  NOAEL: 221 mg/kg/day
[7]
  LEL: 716 mg/kg/day
  LOAEL: 716 mg/kg/day
  NEL: 363 mg/kg/day
  NOAEL: 363 mg/kg/day
[8]; [29]
  LEL: 682 mg/kg/day
  LOAEL: 682 mg/kg/day
  NOAEL: 84 mg/kg/day
[8]; systemic / pathology microscopic / brain / vacuolization
  NEL: 84 mg/kg/day
[9]; group: offspring, systemic / in life observation / body weight / offspring (pup) weight
  LOAEL: 485 mg/kg/day
[9]; group: offspring, systemic / in life observation / body weight / offspring (pup) weight + systemic / organ weight / brain / relative to body weight + systemic…
  NOAEL: 75.4 mg/kg/day
[9]; group: offspring, systemic / organ weight / brain / absolute
  LEL: 85.3 mg/kg/day
[9]; group: offspring, systemic / organ weight / brain / absolute + systemic / in life observation / body weight / offspring (pup) weight + systemic / organ weight…
  NEL: 14.2 mg/kg/day
[9]; [30]
  LEL: 407 mg/kg/day
  LOAEL: 407 mg/kg/day
  NEL: 65.4 mg/kg/day
  NOAEL: 65.4 mg/kg/day
[9]; [31]
  LEL: 467 mg/kg/day
  LOAEL: > 467 mg/kg/day
  NEL: 76.8 mg/kg/day
  NOAEL: ≥ 467 mg/kg/day
[10]
  LEL: 22.8 mg/kg/day
  LOAEL: 22.8 mg/kg/day
  NEL: < 22.8 mg/kg/day
  NOAEL: < 22.8 mg/kg/day
[11]; [32]
  LEL: 1000 mg/kg/day
  LOAEL: 1000 mg/kg/day
  NEL: 200 mg/kg/day
  NOAEL: 200 mg/kg/day
[11]; [33]
  LEL: 200 mg/kg/day
  LOAEL: 1000 mg/kg/day
  NEL: 50 mg/kg/day
  NOAEL: 200 mg/kg/day
[11]; [34]
  LEL: 1000 mg/kg/day
  LOAEL: 1000 mg/kg/day
  NEL: 200 mg/kg/day
  NOAEL: 200 mg/kg/day
[12]
  LEL: 95 mg/kg/day
  LOAEL: 95 mg/kg/day
  NEL: 12 mg/kg/day
  NOAEL: 12 mg/kg/day

## ClC1=C(Cl)[C@]2(Cl)C3C(Cl)C(Cl)CC3[C@@]1(Cl)C2(Cl)Cl (some centres undefined) [Chlordane]
[13]; [35]
  LOAEL: > 12.1 mg/kg/day
  NOAEL: ≥ 12.1 mg/kg/day
[13]; [36]
  LEL: 6.04 mg/kg/day
  NEL: < 6.04 mg/kg/day
[14]
  LEL: 4.49 mg/kg/day
  LOAEL: > 8.43 mg/kg/day
  NEL: < 4.49 mg/kg/day
  NOAEL: ≥ 8.43 mg/kg/day

## NC(=O)c1c(Cl)cccc1Cl [2,6-Dichlorobenzamide]
[15]
  LEL: 49 mg/kg/day
  LOAEL: 49 mg/kg/day
  NEL: 14 mg/kg/day
  NOAEL: 14 mg/kg/day
[16]; [37]
  LEL: 90 mg/kg/day
  LOAEL: 90 mg/kg/day
  NEL: 30 mg/kg/day
  NOAEL: 30 mg/kg/day
[16]; group: maternal, systemic / in life observation / mortality / mortality
  LOAEL: 30 mg/kg/day
[16]; [38]
  NEL: 10 mg/kg/day
  NOAEL: 10 mg/kg/day
[16]; group: maternal, systemic / in life observation / mortality / mortality + systemic / in life observation / clinical signs / moribundity
  LEL: 30 mg/kg/day

## CC(C)(c1ccc(O)cc1)c1ccc(O)cc1 [Bisphenol A]
[17]; systemic / in life observation / body weight / body weight + systemic / in life observation / body weight / body weight gain
  LOAEL: 56.4 mg/kg/day
[17]; [29]
  LEL: 56.4 mg/kg/day
  NEL: 5.85 mg/kg/day
  NOAEL: 5.85 mg/kg/day
[18]
  LEL: 150 mg/kg/day
  LOAEL: > 750 mg/kg/day
  NEL: < 150 mg/kg/day
  NOAEL: ≥ 750 mg/kg/day
[19]
  LEL: 0.03 mg/kg/day
  LOAEL: > 2000 mg/kg/day
  NEL: < 0.03 mg/kg/day
  NOAEL: ≥ 2000 mg/kg/day
[20]
  LEL: 0.04 mg/kg/day
  LOAEL: > 0.4 mg/kg/day
  NEL: < 0.04 mg/kg/day
  NOAEL: ≥ 0.4 mg/kg/day
[21]; [39]
  LEL: 500 mg/kg/day
  LOAEL: > 500 mg/kg/day
  NEL: 50 mg/kg/day
  NOAEL: ≥ 500 mg/kg/day
[21]; group: parental, systemic / in life observation / body weight / body weight + systemic / in life observation / body weight / body weight gain
  LEL: 50 mg/kg/day
[21]; [40]
  LOAEL: > 500 mg/kg/day
  NEL: 5 mg/kg/day
  NOAEL: ≥ 500 mg/kg/day
[21]; group: reproductive, reproductive / reproductive performance / implantations / implantations
  NEL: 50 mg/kg/day
[21]; [41]
  LEL: 500 mg/kg/day
  LOAEL: > 500 mg/kg/day
  NOAEL: ≥ 500 mg/kg/day
[22]; [42]
  LEL: 5 mg/kg/day
  NEL: < 5 mg/kg/day
[22]; [43]
  LOAEL: > 25 mg/kg/day
  NOAEL: ≥ 25 mg/kg/day
